The target of assay [1] is T1, haspin (Homo sapiens, UniProt Q8TF76).
T1 sequence (Q8TF76 1-798): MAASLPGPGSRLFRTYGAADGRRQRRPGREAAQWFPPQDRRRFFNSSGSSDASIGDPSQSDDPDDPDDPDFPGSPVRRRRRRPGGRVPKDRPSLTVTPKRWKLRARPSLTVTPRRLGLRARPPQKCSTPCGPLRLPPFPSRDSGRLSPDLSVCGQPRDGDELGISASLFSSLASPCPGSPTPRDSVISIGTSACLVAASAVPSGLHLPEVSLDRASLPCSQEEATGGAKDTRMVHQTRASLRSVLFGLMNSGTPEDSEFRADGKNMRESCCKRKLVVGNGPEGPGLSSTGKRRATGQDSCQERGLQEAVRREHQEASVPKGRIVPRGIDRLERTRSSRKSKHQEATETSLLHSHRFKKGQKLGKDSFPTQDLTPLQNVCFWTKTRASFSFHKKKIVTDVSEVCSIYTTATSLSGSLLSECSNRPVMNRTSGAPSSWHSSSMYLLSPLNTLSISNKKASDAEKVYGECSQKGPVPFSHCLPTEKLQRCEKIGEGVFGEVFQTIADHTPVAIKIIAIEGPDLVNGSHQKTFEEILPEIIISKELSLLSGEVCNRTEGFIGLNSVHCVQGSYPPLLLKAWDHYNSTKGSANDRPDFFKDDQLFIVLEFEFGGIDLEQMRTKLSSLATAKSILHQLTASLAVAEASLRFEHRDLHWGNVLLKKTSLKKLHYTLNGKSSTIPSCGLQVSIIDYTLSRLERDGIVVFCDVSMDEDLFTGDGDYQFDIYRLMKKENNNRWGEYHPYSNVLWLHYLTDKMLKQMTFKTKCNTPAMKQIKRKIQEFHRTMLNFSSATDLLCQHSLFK
Put plainly: TR-FRET haspin kinase inhibition assay. It is filed as biochemical.

Another assay has as its system mouse xenograft model. To be noted: cited from earlier work.
A further assay has as its target PASK (Homo sapiens, UniProt Q96RG2). Nature of the assay: kinase panel profiling. It is filed as biochemical. The settings on record: read-out: inhibition of PASK.
A further assay addresses CLK1 (Homo sapiens, UniProt P49759). Put plainly: kinase panel profiling. The settings on record: read-out: inhibition of CLK1. It is filed as biochemical.
The next assay concerns the target T2, cGK2 (Homo sapiens, UniProt Q13237).
T2 sequence (Q13237 1-762): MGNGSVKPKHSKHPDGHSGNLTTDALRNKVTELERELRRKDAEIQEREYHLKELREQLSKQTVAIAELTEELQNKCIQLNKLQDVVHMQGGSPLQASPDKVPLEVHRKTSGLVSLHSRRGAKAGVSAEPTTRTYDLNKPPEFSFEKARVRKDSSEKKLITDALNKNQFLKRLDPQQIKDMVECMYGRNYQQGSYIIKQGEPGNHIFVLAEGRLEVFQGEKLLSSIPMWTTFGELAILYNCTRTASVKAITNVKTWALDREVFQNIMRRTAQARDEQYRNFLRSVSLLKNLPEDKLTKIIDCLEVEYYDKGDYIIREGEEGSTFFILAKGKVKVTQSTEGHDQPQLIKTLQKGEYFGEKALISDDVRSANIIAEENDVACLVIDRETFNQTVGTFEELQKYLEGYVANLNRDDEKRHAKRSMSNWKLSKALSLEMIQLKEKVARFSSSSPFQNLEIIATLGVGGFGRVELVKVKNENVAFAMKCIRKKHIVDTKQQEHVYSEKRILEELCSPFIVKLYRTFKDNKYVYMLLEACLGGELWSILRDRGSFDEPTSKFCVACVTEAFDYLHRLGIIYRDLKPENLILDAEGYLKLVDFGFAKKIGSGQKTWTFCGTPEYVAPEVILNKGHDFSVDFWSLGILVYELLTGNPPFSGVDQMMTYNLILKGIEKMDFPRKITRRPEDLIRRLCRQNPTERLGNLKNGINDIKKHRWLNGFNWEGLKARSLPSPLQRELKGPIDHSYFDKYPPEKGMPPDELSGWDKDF
Nature of the assay: kinase panel profiling. It is filed as biochemical. The settings on record: read-out: inhibition of cGK2.

A further assay has as its target CaMK2d (Homo sapiens, UniProt Q13557). Put plainly: kinase panel profiling. It is filed as biochemical. To be noted: read-out: inhibition of CaMK2d.
The next assay has as its target CLK2 (Homo sapiens, UniProt P49760). Nature of the assay: kinase panel profiling. It is filed as biochemical. The settings on record: read-out: inhibition of CLK2.
For a further assay, the target named is T3, DYRK3 (Homo sapiens, UniProt O43781).
T3 sequence (O43781 1-588): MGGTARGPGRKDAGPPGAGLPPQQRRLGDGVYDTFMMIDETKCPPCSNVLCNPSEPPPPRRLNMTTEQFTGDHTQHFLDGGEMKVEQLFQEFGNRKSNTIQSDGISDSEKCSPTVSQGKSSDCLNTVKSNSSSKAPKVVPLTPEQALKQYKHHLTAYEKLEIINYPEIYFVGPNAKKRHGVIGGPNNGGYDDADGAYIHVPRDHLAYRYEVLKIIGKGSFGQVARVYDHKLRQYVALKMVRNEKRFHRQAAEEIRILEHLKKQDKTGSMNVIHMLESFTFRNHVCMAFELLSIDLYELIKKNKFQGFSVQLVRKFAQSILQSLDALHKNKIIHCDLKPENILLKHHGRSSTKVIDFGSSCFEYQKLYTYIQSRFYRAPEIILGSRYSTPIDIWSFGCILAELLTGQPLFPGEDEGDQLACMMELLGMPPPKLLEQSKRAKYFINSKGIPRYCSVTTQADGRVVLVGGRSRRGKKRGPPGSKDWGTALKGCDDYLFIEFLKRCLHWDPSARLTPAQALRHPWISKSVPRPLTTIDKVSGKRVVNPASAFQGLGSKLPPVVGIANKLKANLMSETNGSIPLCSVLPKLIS
Put plainly: kinase panel profiling. It is filed as biochemical. To be noted: read-out: inhibition of DYRK3.

Another assay deals with DYRK1B (Homo sapiens, UniProt Q9Y463). Nature of the assay: kinase panel profiling. It is filed as biochemical. The settings on record: read-out: inhibition of DYRK1B.
Chain of DYRK1B (Q9Y463 whole entry, species assumed): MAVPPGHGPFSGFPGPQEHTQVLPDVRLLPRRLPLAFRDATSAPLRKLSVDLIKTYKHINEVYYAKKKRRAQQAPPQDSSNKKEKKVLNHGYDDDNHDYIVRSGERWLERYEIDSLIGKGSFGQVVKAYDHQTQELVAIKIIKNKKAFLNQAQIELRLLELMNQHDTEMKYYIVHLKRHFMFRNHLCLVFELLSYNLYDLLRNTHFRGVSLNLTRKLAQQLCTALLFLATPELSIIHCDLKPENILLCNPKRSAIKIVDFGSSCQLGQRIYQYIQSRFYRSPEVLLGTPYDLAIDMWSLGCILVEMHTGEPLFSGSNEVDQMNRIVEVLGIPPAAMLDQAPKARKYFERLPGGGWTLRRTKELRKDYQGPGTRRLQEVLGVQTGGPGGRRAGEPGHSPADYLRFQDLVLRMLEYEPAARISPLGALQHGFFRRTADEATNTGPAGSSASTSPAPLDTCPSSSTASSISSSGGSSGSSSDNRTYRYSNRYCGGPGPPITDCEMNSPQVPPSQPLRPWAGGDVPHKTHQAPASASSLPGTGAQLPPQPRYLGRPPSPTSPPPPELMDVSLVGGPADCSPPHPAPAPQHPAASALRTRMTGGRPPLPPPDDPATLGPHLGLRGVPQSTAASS
In another assay the target is DYRK1A (Homo sapiens, UniProt Q13627). Put plainly: kinase panel profiling. It is filed as biochemical. The settings on record: read-out: inhibition of DYRK1A.
The target of the next assay is T4, PKD3 (Homo sapiens, UniProt O94806).
T4 sequence (O94806 1-890): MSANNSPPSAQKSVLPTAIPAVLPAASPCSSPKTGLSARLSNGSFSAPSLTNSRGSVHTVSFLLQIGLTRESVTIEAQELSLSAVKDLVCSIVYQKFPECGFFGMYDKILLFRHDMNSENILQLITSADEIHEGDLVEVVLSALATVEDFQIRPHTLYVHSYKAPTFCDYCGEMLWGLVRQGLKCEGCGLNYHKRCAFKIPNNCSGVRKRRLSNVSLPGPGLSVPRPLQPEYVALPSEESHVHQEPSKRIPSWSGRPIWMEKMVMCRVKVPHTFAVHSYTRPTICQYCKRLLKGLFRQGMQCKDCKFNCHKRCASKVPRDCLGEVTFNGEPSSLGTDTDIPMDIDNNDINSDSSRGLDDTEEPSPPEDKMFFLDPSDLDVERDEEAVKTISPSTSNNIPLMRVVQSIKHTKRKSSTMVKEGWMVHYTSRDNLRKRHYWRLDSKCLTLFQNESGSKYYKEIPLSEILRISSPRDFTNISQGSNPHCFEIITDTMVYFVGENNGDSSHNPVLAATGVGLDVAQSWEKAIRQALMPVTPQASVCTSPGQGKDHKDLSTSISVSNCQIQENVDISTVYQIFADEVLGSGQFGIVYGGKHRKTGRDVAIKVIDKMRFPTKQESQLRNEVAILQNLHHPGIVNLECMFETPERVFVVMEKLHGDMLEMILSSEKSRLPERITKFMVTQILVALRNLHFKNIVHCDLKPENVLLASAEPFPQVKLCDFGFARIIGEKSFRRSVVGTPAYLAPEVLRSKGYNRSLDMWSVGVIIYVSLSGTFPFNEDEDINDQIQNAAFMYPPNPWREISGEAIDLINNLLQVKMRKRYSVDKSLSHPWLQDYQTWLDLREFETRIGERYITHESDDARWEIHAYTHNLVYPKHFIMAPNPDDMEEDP
Put plainly: kinase panel profiling. It is filed as biochemical. The settings on record: read-out: inhibition of PKD3.

The target of the next assay is CaMK2b (Homo sapiens, UniProt Q13554). Nature of the assay: kinase panel profiling. It is filed as biochemical. To be noted: read-out: inhibition of CaMK2b.
Chain of CaMK2b (Q13554 whole entry, species assumed): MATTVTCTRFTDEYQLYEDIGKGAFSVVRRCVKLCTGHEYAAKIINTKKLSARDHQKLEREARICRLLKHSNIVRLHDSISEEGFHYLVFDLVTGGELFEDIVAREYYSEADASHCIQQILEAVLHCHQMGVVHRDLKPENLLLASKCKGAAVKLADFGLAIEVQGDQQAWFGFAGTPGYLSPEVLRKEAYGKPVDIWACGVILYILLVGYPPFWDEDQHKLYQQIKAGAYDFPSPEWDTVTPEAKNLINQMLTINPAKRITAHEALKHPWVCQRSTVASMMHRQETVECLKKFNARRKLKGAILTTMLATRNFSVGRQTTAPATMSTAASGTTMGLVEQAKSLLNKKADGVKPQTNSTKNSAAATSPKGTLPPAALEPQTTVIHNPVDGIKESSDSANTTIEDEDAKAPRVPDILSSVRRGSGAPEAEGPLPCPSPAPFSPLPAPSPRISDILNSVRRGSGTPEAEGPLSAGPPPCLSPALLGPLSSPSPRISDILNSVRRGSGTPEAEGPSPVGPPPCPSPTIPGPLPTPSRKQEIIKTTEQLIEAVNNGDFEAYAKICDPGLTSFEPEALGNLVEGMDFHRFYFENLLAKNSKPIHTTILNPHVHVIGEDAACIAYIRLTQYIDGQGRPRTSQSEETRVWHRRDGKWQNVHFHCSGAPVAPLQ
The next assay addresses CDK7-CycH-Mat1 (Homo sapiens, UniProt P50613). Put plainly: kinase panel profiling. It is filed as biochemical. The settings on record: read-out: inhibition of CDK7-CycH-Mat1.
The target in a further assay is PIM1 (Homo sapiens, UniProt P11309). Put plainly: kinase panel profiling. It is filed as biochemical. The settings on record: read-out: inhibition of PIM1.
Chain of PIM1 (P11309 whole entry, species assumed): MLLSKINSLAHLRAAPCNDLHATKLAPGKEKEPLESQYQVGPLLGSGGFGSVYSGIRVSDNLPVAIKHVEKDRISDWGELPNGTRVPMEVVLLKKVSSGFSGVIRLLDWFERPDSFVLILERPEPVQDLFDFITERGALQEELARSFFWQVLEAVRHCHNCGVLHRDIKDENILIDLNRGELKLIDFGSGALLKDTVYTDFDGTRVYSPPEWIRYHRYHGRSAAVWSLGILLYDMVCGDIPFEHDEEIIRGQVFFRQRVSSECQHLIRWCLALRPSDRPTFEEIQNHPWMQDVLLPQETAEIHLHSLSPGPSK
The target in a further assay is CK1d (Homo sapiens, UniProt P48730). Nature of the assay: kinase panel profiling. It is filed as biochemical. The settings on record: read-out: inhibition of CK1d.
Chain of CK1d (P48730 whole entry): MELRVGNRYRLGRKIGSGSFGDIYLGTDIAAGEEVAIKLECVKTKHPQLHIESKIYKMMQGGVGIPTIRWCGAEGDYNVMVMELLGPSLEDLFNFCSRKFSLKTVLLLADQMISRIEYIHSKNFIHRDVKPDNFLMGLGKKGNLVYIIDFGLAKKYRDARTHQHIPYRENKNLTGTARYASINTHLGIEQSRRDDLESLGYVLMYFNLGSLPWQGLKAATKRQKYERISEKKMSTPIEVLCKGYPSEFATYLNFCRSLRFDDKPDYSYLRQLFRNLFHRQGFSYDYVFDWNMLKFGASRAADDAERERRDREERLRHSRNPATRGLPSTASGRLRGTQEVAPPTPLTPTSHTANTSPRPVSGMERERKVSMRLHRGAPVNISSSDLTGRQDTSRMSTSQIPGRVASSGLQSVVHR
The target in assay [2] is T1, haspin. Nature of the assay: biochemical. To be noted: read-out: inhibition of haspin.

Some results are limits rather than exact numbers.

Chain of CLK1 (P49759 whole entry): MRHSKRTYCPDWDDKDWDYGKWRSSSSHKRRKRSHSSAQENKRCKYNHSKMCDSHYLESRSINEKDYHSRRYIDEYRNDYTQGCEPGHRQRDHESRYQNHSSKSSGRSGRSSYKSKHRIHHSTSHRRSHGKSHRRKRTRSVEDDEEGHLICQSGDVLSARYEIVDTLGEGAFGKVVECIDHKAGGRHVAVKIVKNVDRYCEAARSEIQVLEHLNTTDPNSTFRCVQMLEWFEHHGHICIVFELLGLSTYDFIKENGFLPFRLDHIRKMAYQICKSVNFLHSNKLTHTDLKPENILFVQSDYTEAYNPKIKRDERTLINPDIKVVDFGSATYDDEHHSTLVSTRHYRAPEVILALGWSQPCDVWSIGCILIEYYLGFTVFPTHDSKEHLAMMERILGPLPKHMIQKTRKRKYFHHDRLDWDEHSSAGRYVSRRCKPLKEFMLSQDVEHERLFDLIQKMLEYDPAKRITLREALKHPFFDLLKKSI
Chain of CaMK2d (Q13557 whole entry, species assumed): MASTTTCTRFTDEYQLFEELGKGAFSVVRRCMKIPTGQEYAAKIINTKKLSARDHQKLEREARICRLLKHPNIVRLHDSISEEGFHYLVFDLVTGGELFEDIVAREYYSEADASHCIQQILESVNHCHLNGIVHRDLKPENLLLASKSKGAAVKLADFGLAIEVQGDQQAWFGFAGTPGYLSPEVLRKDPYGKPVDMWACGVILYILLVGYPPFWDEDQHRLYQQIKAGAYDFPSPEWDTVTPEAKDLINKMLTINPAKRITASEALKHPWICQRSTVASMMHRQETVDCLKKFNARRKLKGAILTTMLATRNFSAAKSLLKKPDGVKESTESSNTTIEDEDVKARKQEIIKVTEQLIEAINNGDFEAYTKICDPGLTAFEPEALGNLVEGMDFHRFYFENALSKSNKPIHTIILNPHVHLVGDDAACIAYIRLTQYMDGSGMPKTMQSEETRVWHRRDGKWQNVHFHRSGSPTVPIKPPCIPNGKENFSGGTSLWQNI
Chain of CLK2 (P49760 whole entry, species assumed): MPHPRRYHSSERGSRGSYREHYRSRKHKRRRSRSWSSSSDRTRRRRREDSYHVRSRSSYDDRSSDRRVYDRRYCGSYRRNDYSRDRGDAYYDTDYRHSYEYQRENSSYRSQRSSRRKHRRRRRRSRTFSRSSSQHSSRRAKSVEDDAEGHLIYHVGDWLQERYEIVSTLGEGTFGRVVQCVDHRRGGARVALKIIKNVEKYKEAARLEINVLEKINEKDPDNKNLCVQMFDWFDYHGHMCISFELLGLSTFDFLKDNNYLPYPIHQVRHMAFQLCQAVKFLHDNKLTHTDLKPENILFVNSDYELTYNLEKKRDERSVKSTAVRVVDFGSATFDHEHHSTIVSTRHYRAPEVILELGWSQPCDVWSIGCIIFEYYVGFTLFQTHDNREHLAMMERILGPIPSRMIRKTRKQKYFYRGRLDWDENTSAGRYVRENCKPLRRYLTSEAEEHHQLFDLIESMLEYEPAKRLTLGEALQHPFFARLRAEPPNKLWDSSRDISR
Chain of CDK7-CycH-Mat1 (P50613 whole entry): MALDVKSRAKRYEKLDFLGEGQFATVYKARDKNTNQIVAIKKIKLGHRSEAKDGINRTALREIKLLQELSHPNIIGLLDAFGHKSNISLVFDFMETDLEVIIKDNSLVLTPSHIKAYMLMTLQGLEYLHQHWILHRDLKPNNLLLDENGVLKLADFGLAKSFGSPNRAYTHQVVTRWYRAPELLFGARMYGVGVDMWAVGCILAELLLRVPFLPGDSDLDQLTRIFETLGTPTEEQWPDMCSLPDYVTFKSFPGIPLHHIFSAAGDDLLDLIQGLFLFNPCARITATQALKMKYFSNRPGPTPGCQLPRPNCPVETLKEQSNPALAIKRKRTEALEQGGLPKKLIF
Chain of CDK7-CycH-Mat1 (P51946 whole entry partner): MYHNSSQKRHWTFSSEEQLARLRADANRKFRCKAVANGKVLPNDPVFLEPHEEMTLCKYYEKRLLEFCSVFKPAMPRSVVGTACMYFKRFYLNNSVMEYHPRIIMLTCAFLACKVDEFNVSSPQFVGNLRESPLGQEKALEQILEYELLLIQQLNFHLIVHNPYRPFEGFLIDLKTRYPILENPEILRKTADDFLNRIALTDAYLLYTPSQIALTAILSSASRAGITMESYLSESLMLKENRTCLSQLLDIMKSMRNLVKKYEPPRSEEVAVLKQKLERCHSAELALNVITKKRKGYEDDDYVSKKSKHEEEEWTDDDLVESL
Chain of CDK7-CycH-Mat1 (P51948 whole entry partner): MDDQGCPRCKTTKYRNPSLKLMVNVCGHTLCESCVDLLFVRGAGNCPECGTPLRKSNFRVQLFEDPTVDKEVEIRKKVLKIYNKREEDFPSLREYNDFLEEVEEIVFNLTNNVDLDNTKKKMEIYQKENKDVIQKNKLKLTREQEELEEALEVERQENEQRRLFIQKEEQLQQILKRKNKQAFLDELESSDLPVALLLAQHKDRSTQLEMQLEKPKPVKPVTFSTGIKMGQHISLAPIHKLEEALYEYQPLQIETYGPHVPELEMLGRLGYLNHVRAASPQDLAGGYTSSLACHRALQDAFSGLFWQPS

As for `Cc1nccc2c1[nH]c1cc(OCCCN)ccc12` [7a], at haspin [1], the “haspin inhibition at 10 µM” value is “inactive”.

For the compound `Cc1nccc2c1[nH]c1cc(OCCCCN)ccc12` [7b], on haspin [1], the “haspin inhibition at 10 µM” value was “inactive”.

As to `CCCNc1ccc2ncc(-c3ccc4[nH]ncc4c3)n2n1` [CHR-6494], the anti-tumor activity result in the assay with mouse xenograft model is reported as “displayed anti-tumor activity”.

For `COc1ccc2c3ccnc(C(F)(F)F)c3n(CCCCN)c2c1` [compound 42], the inhibition at 10 µM on PASK, on CLK1, at cGK2, at CaMK2d, at CLK2 and on DYRK3 was not below 90% throughout. Also, the inhibition at 10 µM on DYRK1B, at DYRK1A, on PKD3, on CaMK2b, on CDK7-CycH-Mat1 and at PIM1 was not below 90% in each case. The inhibition at 10 µM on CK1d and on haspin [2] was not below 90% throughout.

Values taken from publication PMC3288743 (Bioorganic & medicinal chemistry letters, 2012).
